Where “and” joins values, the source holds several entries; their conditions need not be identical. Equal entries are not always repeated. Where two headings read alike, the source gives them in different places.
Experiments:
ferrets = assay: Gastro-intestinal side effects in ferrets; settings: i.p.
Protocol: These studies were performed in ferrets that were dosed i.p. with either 20 mg/kg galantamine (maximal tolerated dose), or with 20, 40 and 80 mg/kg Memogain, respectively.

[1] = Dog study, single intranasal dose: plasma and brain levels
Protocol: The study was performed in dogs. A single dose of 4 mg/kg intranasal Memogain was administered and the plasma levels of Memogain and liberated galantamine were determined as a function of time after administration.

[2] = mouse, in vivo
Protocol: Mice were injected with 3 mg/kg i.v. of either Memogain or galantamine.

physchem = type: physicochemical
Protocol: Free Base in Water: 26 μg/ml (66 μM)
Maleate in Water: 7.5 mg/ml (15 mM)
Maleate in 0.9% NaCl: 0.6 mg/ml (1.5 mM)
Free Base in Cyclodextrin-Vehicle^1): 8.9 mg/ml (23 mM)
Maleate in Cyclodextrin-Vehicle): 21 mg/ml (41 mM) ^1) 15% (109 mM) Hydroxypropyl-β-cyclodextrin, 96 mM NaCl

[3] = tested on: scopolamine-induced amnesia in mice; assay: Reversal of scopolamine-induced amnesia in T-maze; type: in vivo; settings: scopolamine i.p.; intranasal Memogain versus galantamine
Source text: We therefore used pharmacodynamics studies to determine the effective concentrations of parent drug in suitable experimental conditions, such as the reversal of scopolamine-induced temporary amnesia in the T-maze cognitive paradigm studied in mice. These studies confirmed that several fold higher (up to 20 fold) BBRC of parent drug (and related effectiveness in cognitive enhancement) can be achieved by transmucosal delivery of pro-drug formulations via the nasal or buccal cavity.
Mice were treated with scopolamine to induce acute amnesia and were then tested for performance in a T-maze, in the absence or presence of […] galantamine or intranasal Memogain (FIG. 7). […] Mice were challenged with Scopolamine i.p. in a T-maze assay to induce disorientation/amnesia (set to 0% performance recovery). Co-application of galantamine (i.p.) or of Memogain® (i.n.) rescues orientation in the T-maze in a dose-dependent manner.

rats [4] = settings: rat, in vivo
[5] = type: in vivo
Source text: Intranasal dosing can be done with simple spray-pump methods, although also many other methods can be used.

[6] = biological target: acetylcholinesterase (AChE) (Homo sapiens, UniProt P22303); assay: esterase inhibition compared with galantamine; type: biochemical; settings: read-out: esterase inhibition, relative to that induced by the same concentration of galantamine
Protocol: Said derivative of galantamine can be obtained by a one-step chemical modification of the parent drug (galantamine). The modification almost completely abolishes the pharmacological activity of galantamine on its two major targets in the human body, nicotinic acetylcholine receptor (nAChR) and acetylcholinesterase (AChE).
At the physiologically interesting concentration of 1 μM, Memogain has less than 4% of the esterase inhibition induced by the same concentration of galantamine.

[7] = design: species or system Wistar rats; settings: rat, in vivo, 3 mg/kg
Protocol: The first-pass effect of Gln-1062 was evaluated after intravenous and intraportal dosing of 3 mg/kg in Wistar rats (FIG. 8).

rats [8] = settings: rat, in vivo; remark: listed apart in the source
dogs [9] = settings: dog, in vivo
[10] = in vivo
[11] = 3 mg/kg
Protocol: The pharmacokinetics and brain-to-blood concentration ratios (BBRC) of several galantamine derivatives and their cleavage product galantamine were evaluated after intranasal administration in Swiss albino mice at a dose of 3 mg/kg. After extraction from brain and blood, the drug concentrations were determined by LC/MS/MS. For comparison, the BBRC for the parent drug galantamine was also determined.

dogs [12] = assay: Safety after intravenous bolus; type: in vivo
Protocol: Example 13. Memogain is at Least 10 Times Safer than Galantamine
This study was performed in dogs, and both drugs were administered as intravenous bolus. The lower toxicity of Memogain is due to the much lower steady-state plasma levels of galantamine resulting from enzymatic cleavage of the pro-drug (FIG. 11).

[13] = Solubility test of Memogain salts in water (HPLC); type: physicochemical; settings: after warming to >50° C.; precipitation seeding avoided
Protocol: 10 mg of the corresponding salt and 100 microliters of water were sonicated for 5 min at r.t. The resulting solution or suspension was centrifuged for 3 min. and filtered using a filter tip. 10 microliters of the filtrate was transferred in a volumetric flask and diluted to 10.0 ml with water to obtain the sample solution. 20 microliters of this sample solution was injected for HPLC and the amount of Memogain quantified using a Merck Chromolith RP18 column and a gradient of 5% to 60% acetonitrile and water, both solvents containing 0.1% formic acid, injection volume: 20 microliters.

Chain of acetylcholinesterase (AChE) (P22303 32-614): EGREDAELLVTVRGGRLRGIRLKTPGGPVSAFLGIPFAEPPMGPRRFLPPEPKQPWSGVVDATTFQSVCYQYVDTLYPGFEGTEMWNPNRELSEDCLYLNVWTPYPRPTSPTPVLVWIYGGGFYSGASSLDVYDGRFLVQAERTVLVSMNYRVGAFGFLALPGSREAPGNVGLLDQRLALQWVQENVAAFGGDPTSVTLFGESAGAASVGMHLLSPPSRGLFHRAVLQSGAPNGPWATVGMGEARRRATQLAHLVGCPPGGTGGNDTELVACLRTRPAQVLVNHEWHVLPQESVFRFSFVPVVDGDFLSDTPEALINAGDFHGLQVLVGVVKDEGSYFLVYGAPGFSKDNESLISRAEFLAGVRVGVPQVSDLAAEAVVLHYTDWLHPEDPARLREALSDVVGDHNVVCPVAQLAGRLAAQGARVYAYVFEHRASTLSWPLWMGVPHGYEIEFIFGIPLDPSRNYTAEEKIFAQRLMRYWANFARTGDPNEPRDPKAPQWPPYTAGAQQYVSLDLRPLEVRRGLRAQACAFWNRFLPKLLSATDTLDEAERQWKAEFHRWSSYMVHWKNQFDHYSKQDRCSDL

## COc1ccc2c3c1O[C@H]1C[C@@H](O)C=C[C@@]31CCN(C)C2 [galantamine]
ferrets
  maximal tolerated dose: 20 mg/kg
[1]; in vivo, 4 mg/kg
  Kp at 120 min: 1 to 1.5
  half-life: 6 h
[2]
  BBRC: ~1:1

## COc1ccc2c3c1O[C@H]1C[C@@H](OC(=O)c4ccccc4)C=C[C@@]31CCN(C)C2.O=C(O)/C=C\C(=O)O [Memogain maleate]
physchem; 0.9% NaCl
  Solubility in 0.9% NaCl: 0.6 mg/ml and 1.5 mM
physchem; 15% (109 mM) Hydroxypropyl-β-cyclodextrin, 96 mM NaCl
  Solubility in Cyclodextrin-Vehicle: 21 mg/ml and 41 mM
physchem; water
  Solubility in Water: 7.5 mg/ml and 15 mM

## COc1ccc2c3c1O[C@H]1C[C@@H](OC(=O)c4ccccc4)C=C[C@@]31CCN(C)C2 [GLN-1062, (4aS,6R,8aS)-4a,5,9,10,11,12-hexahydro-3-methoxy-11-methyl-6H-Benzofuro[3a,3,2-ef][2]benzazepin-6-ol, 6-benzoate]
physchem; aqueous with cosolvent or surfactant or cyclodextrin
  solubility: 8900 µg/mL and 23000 µM
physchem; water
  solubility: 26 µg/mL and 66 µM
[3]
  reversal of acutely induced amnesia (T-maze performance): more effective than galantamine
ferrets; from dose dependency of adverse effects (20, 40, 80 mg/kg)
  lower toxicity as compared to galantamine: at least 4 times
Rats [4]
  adverse effects compared with galantamine: much less adverse effects
[5]; in vivo
  GI side effects: no GI side effects were observed
[6]
  inhibition at 1 µM: < 4%
[7]
  maximal concentration levels in the brain, compared with i.v. administration: similarly high maximal concentration levels
Rats [8]
  adverse effects compared with galantamine: much less adverse effects
Dogs [9]
  adverse effects compared with galantamine: much less adverse effects
[1]; dog
  half-life: 1.5 h
[1]; dog, 4 mg/kg
  Kp at 120 min: 9
[10]
  GI-related side effects: GI-related side effects had practically disappeared
[11]; mouse, in vivo
  BBRC compared with galantamine: particularly large BBRC
Dogs [12]
  safety compared with galantamine: at Least 10 Times

## COc1ccc2c3c1O[C@H]1C[C@@H](OC(=O)c4ccccc4)C=C[C@@]31CCN(C)C2.O=C(O)C(O)C(O)C(O)C(O)CO [Memogain gluconate, galantamine benzoate gluconate]
[13]
  stability of metastable high-concentration aqueous solution: stable for hours and days
[5]; intranasal
  local sensation on intranasal dosing: no burning sensation to nose
[11]; intranasal, LC/MS/MS
  BBRC compared with galantamine: much larger BBRC than galantamine
